# Test system: 931267-113-T-J1-PDC KRAS spheroid with HUVEC/MSC, viability
# Assay: Anticancer human tumor 931267-113-T-J1-PDC patient-derived colon adenocarcinoma cell line growth inhibition [KRAS2]
# Conditions: for viability, T/C: stronger effect = lower value
# Excerpt: Multicellular complex tumor spheroid response to RAS pathway inhibitors in combination with a targeted agents in patient-derived cell lines with oncogenic KRAS variants from multiple cancer types
# A high-throughput screen of multi-cell type tumor spheroids was designed to identify active combinations of targeted small molecules and KRAS pathway inhibitors. Complex spheroids include a stromal component modeled by human endothelial cells (HUVEC) and fibroblasts modeled by human mesenchymal stem cells (MSCs). The concentration ranges selected for each drug and investigational agent were based upon clinically achievable concentrations if the clinical Cmax of the agent was known.
# Compounds. The drugs and investigational agents: BI-3406 (NSC825286), BAY-293 (NSC824723), batoprotafib (TNO155; NSC825523), sotorasib (AMG 510; NSC818433), MRTX1257 (NSC819558), elimusertib (BAY 1895344; NSC800525), molibresib (GSK525762; NSC774829), temuterkib (LY3214996; NSC803410), venetoclax (NSC766270), alisertib (NSC759677), olaparib (NSC753686), talazoparib (NSC767125), erdafitinib (NSC781556), ipatasertib (NSC767898), cabozantinib (NSC761068), nintedanib (NSC756659), abemaciclib (NSC768073), docetaxel (NSC628503), trametinib (NSC758246), and sapanisertib (NSC764658) were obtained from the National Cancer Institute (NCI) Developmental Therapeutics Program Chemical Repository. The FDA-approved anticancer drug set is available from the Developmental Therapeutics Program. […] The stock solutions were prepared in dimethyl sulfoxide (DMSO, Sigma-Aldrich, St. Louis, MO, cat. D2650) at 800-fold the tested concentration and stored at -70 degrees C prior to their use. All drugs and investigational agents were tested over a range starting from a high concentration at or near the clinical Cmax and decreasing in half-log increments. If the clinical Cmax for an agent had not been determined, the highest concentration tested was 10 microM.
# Cell Culture. All cells were maintained in an incubator at 37 degrees C and 5% CO2 with 95% humidity. The PDC lines were cultured according to standard operating procedures established by the NCI PDMR (https://pdmr.cancer.gov/sops/default.htm). Briefly, all PDCs were thawed and cultured in Matrigel-coated flasks prepared with a working solution of 1X Ham's F-12 nutrient mix, without supplementation (Invitrogen, Waltham, MA, cat. 11765054), 100 U/mL penicillin-streptomycin (Invitrogen, cat. 15140122), and 2.5% Matrigel (Corning Inc., Corning, NY, cat. 354248) for the first three passages. All PDCs were cultured in complete DMEM/F-12 media containing advanced DMEM/F-12 (Invitrogen, cat. 12634028), 4.9% defined fetal bovine serum, heat inactivated (HyClone Laboratories Inc., Logan, UT, cat. SH30070.03HI), 389 ng/mL hydrocortisone (Sigma-Aldrich, cat. H4001), 9.7 ng/mL human EGF recombinant protein (Invitrogen, cat. PHG0313), 23.4 microg/mL adenine (Sigma-Aldrich, cat. A2786), 97.3 U/mL penicillin-streptomycin (Invitrogen, cat. 15140122), 1.9 mM L-glutamine (Invitrogen, cat. 25030081), and 9.7 microM Y-27632 dihydrochloride (Tocris Bioscience, Bristol, United Kingdom, cat. 1254). The PDCs were cultured in complete DMEM/F12 media without 9.7 microM Y-27632 dihydrochloride for at least two passages prior to the screen. The established cell line HOP-62 was cultured in RPMI 1640 medium, HEPES (Invitrogen, cat. 22400105) with 10% defined fetal bovine serum (HyClone Laboratories Inc., cat. SH30070.03) and 2 mM L-glutamine (Invitrogen, cat. 25030081). The pooled donor HUVEC were cultured in endothelial cell growth medium 2 (PromoCell, Heidelberg, Germany, cat. C-22011) and the hMSC were cultured in mesenchymal stem cell growth medium 2 (PromoCell, cat. C-28009). For all experiments, HUVEC and hMSC were used at passages </=5, while the malignant cell lines were used at passages </=15. […]
# [1] = curve of first compound, second compound 0.1 µM
# [2] = curve of first compound, second compound 0.316 µM
# [3] = curve of first compound, second compound 1 µM
# [4] = curve of first compound, second compound 3.16 µM
# [5] = second compound 0.1 µM, first compound 0.0316 µM
# [6] = second compound 0.1 µM, first compound 0.1 µM
# [7] = second compound 0.1 µM, first compound 0.316 µM
# [8] = second compound 0.1 µM, first compound 1 µM
# [9] = second compound 0.316 µM, first compound 0.0316 µM
# [10] = second compound 0.316 µM, first compound 0.1 µM
# [11] = second compound 0.316 µM, first compound 0.316 µM
# [12] = second compound 0.316 µM, first compound 1 µM
# [13] = second compound 1 µM, first compound 0.0316 µM
# [14] = second compound 1 µM, first compound 0.1 µM
# [15] = second compound 1 µM, first compound 0.316 µM
# [16] = second compound 1 µM, first compound 1 µM
# [17] = second compound 3.16 µM, first compound 0.0316 µM
# [18] = second compound 3.16 µM, first compound 0.1 µM
# [19] = second compound 3.16 µM, first compound 0.316 µM
# [20] = second compound 3.16 µM, first compound 1 µM
# 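Further: compound exposure lasted 7 days before the readout.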
# 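Wherever viability, T/C is given: 100% = DMSO vehicle control viability.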
Structure (SMILES),IC50 [1],IC50 [2],IC50 [3],IC50 [4],"viability, T/C [5]","viability, T/C [6]","viability, T/C [7]","viability, T/C [8]","viability, T/C [9]","viability, T/C [10]","viability, T/C [11]","viability, T/C [12]","viability, T/C [13]","viability, T/C [14]","viability, T/C [15]","viability, T/C [16]","viability, T/C [17]","viability, T/C [18]","viability, T/C [19]","viability, T/C [20]",other results
O=C(c1cc(Cc2n[nH]c(=O)c3ccccc23)ccc1F)N1CCN(C(=O)C2CC2)CC1 + CNCc1ccccc1-c1csc(C(C)Nc2nc(C)nc3cc(OC)c(OC)cc23)c1,> 10000 nM,> 10000 nM,> 10000 nM,< 31.6 nM,98.8%,100%,86.8%,85.9%,106%,88.5%,98%,88.5%,114%,113%,108%,96.6%,0.55%,0.34%,0.4%,0.47%,"IC50 (curve of first compound, second compound 10 µM): < 31.6 nM; viability, T/C (second compound 0.1 µM, first compound 3.16 µM): 61.9%; viability, T/C (second compound 0.1 µM, first compound 10 µM): 72.2%; viability, T/C (second compound 0.316 µM, first compound 3.16 µM): 82.7%; viability, T/C (second compound 0.316 µM, first compound 10 µM): 80%; viability, T/C (second compound 1 µM, first compound 3.16 µM): 112%; viability, T/C (second compound 1 µM, first compound 10 µM): 75.6%; viability, T/C (second compound 3.16 µM, first compound 3.16 µM): 0.43%; viability, T/C (second compound 3.16 µM, first compound 10 µM): 0.38%; viability, T/C (second compound 10 µM, first compound 0.0316 µM): 0.16%; viability, T/C (second compound 10 µM, first compound 0.1 µM): 0.2%; viability, T/C (second compound 10 µM, first compound 0.316 µM): 0.21%; viability, T/C (second compound 10 µM, first compound 1 µM): 0.61%; viability, T/C (second compound 10 µM, first compound 3.16 µM): 0.27%; viability, T/C (second compound 10 µM, first compound 10 µM): 0.23%"
CCN1CCN(Cc2ccc(Nc3ncc(F)c(-c4cc(F)c5nc(C)n(C(C)C)c5c4)n3)nc2)CC1 + C=CC(=O)N1CCN(c2nc(OCC3CCCN3C)nc3c2CCN(c2cccc4cccc(C)c24)C3)CC1CC#N,549 nM,> 1000 nM,734 nM,< 3.16 nM,68.2%,67.4%,61.8%,39.7%,64.3%,60%,64.6%,48.6%,77.3%,82.4%,61.2%,45.9%,0.2%,0.23%,0.3%,0.21%,"IC50 (curve of first compound, second compound 0.0316 µM): > 1000 nM; viability, T/C (second compound 0.0316 µM, first compound 0.00316 µM): 108%; viability, T/C (second compound 0.0316 µM, first compound 0.01 µM): 86%; viability, T/C (second compound 0.0316 µM, first compound 0.0316 µM): 70.7%; viability, T/C (second compound 0.0316 µM, first compound 0.1 µM): 67.8%; viability, T/C (second compound 0.0316 µM, first compound 0.316 µM): 65.7%; viability, T/C (second compound 0.0316 µM, first compound 1 µM): 54%; viability, T/C (second compound 0.1 µM, first compound 0.00316 µM): 83.8%; viability, T/C (second compound 0.1 µM, first compound 0.01 µM): 72.2%; viability, T/C (second compound 0.316 µM, first compound 0.00316 µM): 93.7%; viability, T/C (second compound 0.316 µM, first compound 0.01 µM): 84.2%; viability, T/C (second compound 1 µM, first compound 0.00316 µM): 73.8%; viability, T/C (second compound 1 µM, first compound 0.01 µM): 74.2%; viability, T/C (second compound 3.16 µM, first compound 0.00316 µM): 0.66%; viability, T/C (second compound 3.16 µM, first compound 0.01 µM): 2.55%"
COc1cc2nc(C)nc(NC(C)c3cc(N)cc(C(F)(F)F)c3)c2cc1OC1CCOC1 (configuration not stated),–,–,–,–,–,–,–,–,–,–,–,–,–,–,–,–,–,–,–,–,"IC50 (compound alone, run of 08/26/2021): 4.74 µM [middle of 4 runs]; IC50 (compound alone, run of 09/02/2021): 4.4 µM [middle of 6 runs]"

# Reference: PubChem BioAssay AID1963863 (Molecular Pharmacology Branch, DTP, NCI, 2024)
